Test results: the NIST ThermoML archive (doi:10.1021/je060441j)

Test: xn = mol fraction of the nth substance listed
Details: 101 kPa, Liquid

ClC(Cl)Cl [trichloromethane] + CO
mass density [kg/m3]
Details	303.15 K	308.15 K	313.15 K
x2 = 0	1469.61	1460.03	1450.41
x2 = 0.0298	1458.95	1449.38	1439.8
x2 = 0.0492	1451.95	1442.4	1432.84
x2 = 0.0724	1443.55	1434.04	1424.49
x2 = 0.0942	1435.38	1425.89	1416.4
x2 = 0.1282	1422.37	1412.96	1403.52
x2 = 0.1586	1410.37	1401.04	1391.68
x2 = 0.2444	1374.3	1365.22	1356.1
x2 = 0.2956	1351.14	1342.24	1333.29
x2 = 0.3383	1330.66	1321.9	1313.09
x2 = 0.398	1300.11	1291.59	1283.02
x2 = 0.4393	1277.6	1269.26	1260.88
x2 = 0.4983	1243.28	1235.22	1227.13
x2 = 0.5505	1210.35	1202.55	1194.71
x2 = 0.6022	1175.17	1167.65	1160.08
x2 = 0.6352	1151.3	1143.98	1136.62
x2 = 0.6999	1100.84	1093.93	1086.96
x2 = 0.75	1058.07	1051.48	1044.85
x2 = 0.7996	1012.15	1005.91	999.622
x2 = 0.8193	992.86	986.761	980.633
x2 = 0.8534	958.1	952.24	946.342
x2 = 0.91	895.41	889.975	884.513
x2 = 0.93	871.71	866.422	861.11
x2 = 0.9542	841.927	836.829	831.705
